Experimental data as given in patent US20120245180A1, “COMBINATION” (GlaxoSmithKline LLC, priority 2009, published 2012).
Where two headings read alike, the source gives them in different places.

Columns and labels:
Format in all cases: cell-based
[1] = tested on: C3A; experiment: Cell growth inhibition assay, hepatocellular carcinoma cell line (Cell Titer Glo); conditions: Homo sapiens, 72 h, 3 days
Description: (§1) Human tumor cell lines from hepatocellular carcinoma (HCC), C3A, Hep3B, HepG2, PLC/PRF/5, SNU182, SNU387, SNU398, SNU423, SNU449 and SNU475 were purchased from the ATCC. Human breast tumor cell lines, HCC2218, HCC1419, BT-474, SK-BR-3, UACC893, JIMT-1, MDA-MB-361, HCC202, MDA-MB-175-VII, HCC1569, HCC1937, HCC38, MDA-MB-157, HCC1954, HCC1500, BT483, KPL-1, SUM225 and ZR-75-1 from ATCC, SUM52 and SUM190 from Asterand, PLC (Detroit Mich.), were cultured in RPMI 1640 medium containing 10% FBS; SKBR3-W13 and BT-474-J4 cultured in RPMI 1640 medium containing 10% FBS and 1 μM lapatinib; KPL4 line was kindly provided by Dr Junichi Kurebayashi (Kawasaki Medical School, Okayama, Japan) and cultured in DMEM containing 5% FBS. JIMT-1 from European Collection of Cell Cultures (UK), is a line derived from a patient clinically resistant to trastuzumab (Herceptin®). SK-BR-3-W13 is a single cell clone isolated by a cloning cylinder after a single treatment of SK-BR-3 cells with 0.5 μM lapatinib. BT-474-J4 is a single cell clone derived from a pool of BT-474 cells that were selected to grow in lapatinib to a concentration of 3 μM.
(§2) Cells were seeded in a 96-well tissue culture plate (NUNC 136102) of RPMI medium containing 10% FBS at 500-2,000 cells per well. Approximately 24 hours after plating, cells were exposed to ten, two-fold or three-fold serial dilutions of either Compound A or B or the combination of the two agents at a 2:1 molar ratio (Compounds A and B respectively). In some cases, cells were grown in RPMI media containing 10% FBS and in the presence or absence of 2 ng/mL hepatocyte growth factor (HGF). Cells were incubated in the presence of compounds for 3 days. ATP levels were determined by adding Cell Titer Glo® (Promega) according to the manufacturer's protocol. Briefly, Cell Titer Glo® was added to each plate, incubated for 20 minutes then luminescent signal was read on the SpectraMax L plate reader with a 0.5 sec integration time. All assays were run at least in duplicate.
(§3) Inhibition of cell growth was estimated after treatment with compound or combination of compounds for three days and comparing the signal to cells treated with vehicle (DMSO). Cell growth was calculated relative to vehicle (DMSO) treated control wells. Concentration of compound that inhibits 50% of control cell growth (IC50) was back-interpolated when y=50% of DMSO treated control wells using nonlinear regression with the equation: […]
(§4) where A is the minimum response (ymin), B is the maximum response (Ymax), C is the inflection point of the curve (EC50) and D is the Hill coefficient.
(§5) Combination effects on potency were evaluated using the Combination Index (CI) and Excess Over Highest Single Agent (EHOSA) methods.

[2] = tested on: Hep3B; experiment: as above; conditions: Homo sapiens, 72 h, 3 days
Description: as §1, §2, §3, §4, §5

[3] = tested on: HepG2; experiment: as above; conditions: Homo sapiens, HepG2, 72 h, 3 days
Description: as §1, §2, §3, §4, §5

[4] = tested on: PLC/RF/5; experiment: as above; conditions: Homo sapiens, 72 h, 3 days
Description: as §1, §2, §3, §4, §5

[5] = tested on: SNU182; experiment: as above; conditions: Homo sapiens, SNU-182, 72 h, 3 days
Description: as §1, §2, §3, §4, §5

[6] = tested on: SNU387; experiment: as above; conditions: Homo sapiens, SNU-387, 72 h, 3 days
Description: as §1, §2, §3, §4, §5

[7] = tested on: SNU398; experiment: as above; conditions: Homo sapiens, SNU-398, 72 h, 3 days
Description: as §1, §2, §3, §4, §5

[8] = tested on: SNU423; experiment: as above; conditions: Homo sapiens, SNU-423, 72 h, 3 days
Description: as §1, §2, §3, §4, §5

[9] = tested on: SNU475; experiment: as above; conditions: Homo sapiens, SNU-475, 72 h, 3 days
Description: as §1, §2, §3, §4, §5

[10] = tested on: SK-BR-3-W13; experiment: Cell growth inhibition assay, breast tumor cell line (Cell Titer Glo); conditions: Homo sapiens, 72 h; SK-BR-3-W13 (HER2+), 3 days; read-out: Single agent IC50, Compound A
Description: as §1, §2, §3, §4, §5
DNA Copy number data on the HER2 gene was collected for all breast cancer cell lines using the Affymetrix 500K chip (Affymetrix Inc, Sunnyvale, Calif.). Briefly DNA was extracted from each line, digested with the restriction enzyme Nsp or Sty, ligated to an adaptor and amplified by PCR. After PCR, DNA was fragmented, labeled, denatured, and hybridized to the Affymetrix 500K chip. Upon completion of hybridization, each assay was washed and stained. Image data were acquired. Similarly collected data from a panel 10 diploid non-tumorigenic lymphoblastic cell lines were used to calculate DNA copy number. All ‘SNP Chip’ images ('CEL files'), were extracted, read and normalized using the dChip software package (Lin et al. 2004. Bioinformatics. 20:1233-40). SNP-wise ‘copy-number ratios’ (log2 scale) were calculated for all cancer cell lines using the lymphoblastic reference panel and analyzed by circular binary segmentation to reduce noise (Olshen et al. 2004. Biostatistics. 5:557-72). Cell lines with log2 ratios of HER2>0.65 were considered HER2+.

[11] = HGF + (2 ng/ml), read-out: Single agent IC50, Compound A
[12] = HGF −, read-out: Single agent IC50, Compound A
[13] = HGF + (2 ng/ml), read-out: Single agent IC50, Compound B
[14] = HGF −, read-out: Single agent IC50, Compound B

An IC50 [1, 11] of 36 ± 11 nM, an IC50 [1, 12] of 10 ± 3 nM and an IC50 [2, 11] of 37 ± 8 nM were found for `CC(=O)Nc1cccc(-n2c(=O)n(C3CC3)c(=O)c3c(Nc4ccc(I)cc4F)n(C)c(=O)c(C)c32)c1` [Compound A, N-{3-[3-cyclopropyl-5-[(2-fluoro-4-iodophenyl)amino]-6,8-dimethyl-2,4,7-trioxo-3,4,6,7-tetrahydropyrido[4,3-d]pyrimidin-1(2H)-yl]phenyl}acetamide] in this work. The IC50 [2, 12] was 26 ± 8 nM, the IC50 ([3]; HepG2, HGF + (2 ng/ml), read-out: Single agent IC50, Compound A) was 3 ± 1 nM and the IC50 ([3]; HepG2, HGF −, read-out: Single agent IC50, Compound A) was 1 nM. It also gave an IC50 ([4]; PLC/RF/5, HGF + (2 ng/ml), read-out: Single agent IC50, Compound A) of 2870 ± 1560 nM, an IC50 ([4]; PLC/RF/5, HGF −, read-out: Single agent IC50, Compound A) of 1600 ± 509 nM and an IC50 ([5]; SNU182, HGF + (2 ng/ml), read-out: Single agent IC50, Compound A) of 1280 ± 1220 nM. The IC50 ([5]; SNU182, HGF −, read-out: Single agent IC50, Compound A) was 1760 ± 224 nM, the IC50 ([6]; SNU387, HGF + (2 ng/ml), read-out: Single agent IC50, Compound A) was 94 ± 21 nM and the IC50 ([6]; SNU387, HGF −, read-out: Single agent IC50, Compound A) was 74 ± 46 nM. The IC50 ([7]; SNU398, HGF + (2 ng/ml), read-out: Single agent IC50, Compound A) was > 5000 nM, the IC50 ([7]; SNU398, HGF −, read-out: Single agent IC50, Compound A) was > 5000 nM and the IC50 ([8]; SNU423, HGF + (2 ng/ml), read-out: Single agent IC50, Compound A) was 577 ± 569 nM. The IC50 ([8]; SNU423, HGF −, read-out: Single agent IC50, Compound A) was 218 ± 130 nM, the IC50 ([9]; SNU475, HGF + (2 ng/ml), read-out: Single agent IC50, Compound A) was > 5000 nM and the IC50 ([9]; SNU475, HGF −, read-out: Single agent IC50, Compound A) was > 5000 nM. The IC50 [10] was > 1000 nM.

An IC50 [1, 13] of 13 ± 1 nM, an IC50 [1, 14] of 13 ± 1 nM and an IC50 [2, 13] of 57 ± 20 nM were found for `COc1ncc(-c2ccc3nccc(-c4ccnnc4)c3c2)cc1NS(=O)(=O)c1ccc(F)cc1F` [Compound B, 2,4-difluoro-N-{2-(methyloxy)-5-[4-(4-pyridazinyl)-6-quinolinyl]-3-pyridinyl}benzenesulfonamide] in this work. The IC50 [2, 14] was 28 ± 2 nM, the IC50 ([3]; HepG2, HGF + (2 ng/ml), read-out: Single agent IC50, Compound B) was 9 ± 5 nM and the IC50 ([3]; HepG2, HGF −, read-out: Single agent IC50, Compound B) was 9 ± 8 nM. It also gave an IC50 ([4]; PLC/RF/5, HGF + (2 ng/ml), read-out: Single agent IC50, Compound B) of 15 ± 1 nM, an IC50 ([4]; PLC/RF/5, HGF −, read-out: Single agent IC50, Compound B) of 18 ± 12 nM and an IC50 ([5]; SNU182, HGF + (2 ng/ml), read-out: Single agent IC50, Compound B) of 17 ± 4 nM. The IC50 ([5]; SNU182, HGF −, read-out: Single agent IC50, Compound B) was 17 ± 1 nM, the IC50 ([6]; SNU387, HGF + (2 ng/ml), read-out: Single agent IC50, Compound B) was 71 ± 10 nM and the IC50 ([6]; SNU387, HGF −, read-out: Single agent IC50, Compound B) was 103 ± 10 nM. It also gave an IC50 ([7]; SNU398, HGF + (2 ng/ml), read-out: Single agent IC50, Compound B) of 83 ± 2 nM, an IC50 ([7]; SNU398, HGF −, read-out: Single agent IC50, Compound B) of 98 ± 21 nM and an IC50 ([8]; SNU423, HGF + (2 ng/ml), read-out: Single agent IC50, Compound B) of 21 ± 7 nM. It also gave an IC50 ([8]; SNU423, HGF −, read-out: Single agent IC50, Compound B) of 23 ± 16 nM, an IC50 ([9]; SNU475, HGF + (2 ng/ml), read-out: Single agent IC50, Compound B) of 39 ± 17 nM and an IC50 ([9]; SNU475, HGF −, read-out: Single agent IC50, Compound B) of 50 ± 19 nM.
